Tests used:
[1] = system: Serratia marcenses CECT 274; conditions: Gram − bacteria; cited from earlier work
Escherichia coli 0157H7 = conditions: Gram − bacteria; cited from earlier work
S. sobrinus = assay: Antimicrobial activity on the biofilm (Zurich Biofilm Model); type: cell-based, Streptococcus sobrinus; conditions: 0.5% LAE; 6 exposures of 1 minute in two days, evaluated 16 h after last exposure; control 8.6
Description: (§1) The biofilm model is a reliable tool to predict the in vivo efficacy of antimicrobials, and de- and remineralization of enamel exposed to biofilms in vitro. The experiments were performed with the Zurich Biofilm Model. Biofilms are formed either on hydroxyapatite (HA) or bovine enamel disks that have preconditioned in pooled, unstimulated saliva. Biofilms are formed in 24-well cell culture dishes incubated anaerobically at 37° C. The detailed description to the preparation of this model was published by Guggenheim et al., 2001, J. Dent. Res. 80 (1) 363-370. The microbial composition of this biofilm was constituted by five bacterial species and a yeast. More specifically, they are as follows: Streptococcus oralis, Streptococcus sobrinus, Actinomyces naeslundii, Veillonella dispar and Fusobacterium nucleatum and the yeast studied was Candida albicans. The bacteria chosen for incorporation into this biofilm model were five species encountered in supragingival plaque.
(§2) Most of the biofilm models are based on a continuous flow culture system which means that biofilms are subjected to shear or detachment forces. In contrast, the biofilm model used in these experiments was based on a batch culture system that was subjected only intermittently to such forces in the course of dip-washing or gentle swirling. […]
(§3) The results of the following table were expressed as log10 of CFU: […]

[2] = system: Bordetella bronchiseptica ATCC 4617; conditions: Gram − bacteria; cited from earlier work
V. dispar = assay: Antimicrobial activity on the biofilm (Zurich Biofilm Model); type: cell-based, Veillonella dispar; conditions: 0.5% LAE; 6 exposures of 1 minute in two days, evaluated 16 h after last exposure; control 8.1
Description: as §1, §2, §3

[3] = system: Rhodotorula rubra CECT 1158; conditions: Yeast; cited from earlier work
[4] = system: Escherichia coli ATCC 8739; conditions: Gram − bacteria; cited from earlier work
[5] = system: Enterobacter aerogenes CECT 689; conditions: Gram − bacteria; cited from earlier work
[6] = Effect of LAE on acids generated from sugar rinses: pH on tooth plaque interfaces; type: in vivo, Humans; conditions: for intraoral pH after 10% sucrose rinse: 0.16% LAE, humans
From the text: It has been established, that beverages and food containing sugars promote tooth erosion. The American Dental Association (ADA) food and nutrition programs recommend a procedure for evaluating pH in the mouth after ingestion of food and beverages. This is summarized in the FDA guidelines published in Federal Register 43433, vol 61, No. 165, 1996. The procedure involved measuring pH on tooth plaque interfaces after giving the subjects (6 subjects per group) 10% sucrose rinse in the presence or absence of treatment with 0.16% LAE versus placebo solution containing flavor, sweetener, plasticizer (components of chewing gum) to assess their acid neutralizing effects. […] Whereas rinsing with LAE maintains a pH of 5.4±0.3 which is above the danger zone maintained for 3 and 7 days of continuous monitoring. This validates that LAE not only coats the surface of teeth but maintains a healthy pH around teeth to prevent erosion.
Another effect produced by LAE is the pH neutralization. Upon hydrolysis LAE forms arginine which is a natural pH neutralizer in human saliva. The following table reports the intraoral pH with LAE versus a placebo from 0 to 7 days after 10% sucrose rinse: […]

[7] = system: Streptococcus mutans ATCC 25175; conditions: Gram + bacteria; cited from earlier work
[8] = system: Aureobasidium pullulans ATCC 9348; conditions: Fungi; cited from earlier work
[9] = system: Proteus mirabilis CECT 170; conditions: Gram − bacteria; cited from earlier work
F. nucleatum = assay: Antimicrobial activity on the biofilm (Zurich Biofilm Model); type: cell-based, Fusobacterium nucleatum; conditions: 0.5% LAE; 6 exposures of 1 minute in two days, evaluated 16 h after last exposure; control 5.1
Description: as §1, §2, §3

[10] = system: Penicillium chrysogenum CECT 2802; conditions: Fungi; cited from earlier work
[11] = system: Bacillus cereus var mycoide ATCC 11778; conditions: Gram + bacteria; cited from earlier work
[12] = system: Leuconostoc mesenteroides CETC 912; conditions: Gram + bacteria; cited from earlier work
[13] = system: Citrobacter freundii ATCC 22636; conditions: Gram − bacteria; cited from earlier work
[14] = system: Pseudomonas aeruginosa ATCC 9027; conditions: Gram − bacteria; cited from earlier work
[15] = rats; cited from earlier work
[16] = system: Klebsiella pneumoniae var pneumoniae CECT 178; conditions: Gram − bacteria; cited from earlier work
[17] = system: Staphylococcus aureus ATCC 6538; conditions: Gram + bacteria; cited from earlier work
[18] = system: Chaetonium globosum ATCC 6205; conditions: Fungi; cited from earlier work
[19] = system: Lactobacillus delbrueckii ssp lactis CECT 372; conditions: Gram + bacteria; cited from earlier work
[20] = system: Listeria monocytogenes ATCC 7644; conditions: Gram + bacteria; cited from earlier work
[21] = system: Saccharomyces cerevisiae ATCC 9763; conditions: Yeast; cited from earlier work
C. albicans = assay: Antimicrobial activity on the biofilm (Zurich Biofilm Model); type: cell-based, Candida albicans; conditions: 0.5% LAE; 6 exposures of 1 minute in two days, evaluated 16 h after last exposure; control 5.1
Description: as §1, §2, §3

[22] = system: Gliocadium virens ATCC 4645; conditions: Fungi; cited from earlier work
[23] = system: microorganisms in biofilm (five bacterial species and a yeast); assay: Re-growth of biofilms after LAE exposure (Zurich Biofilm Model); type: cell-based; conditions: 1% LAE
Description: as §1
Most of the biofilm models are based on a continuous flow culture system which means that biofilms are subjected to shear or detachment forces. In contrast, the biofilm model used in these experiments was based on a batch culture system that was subjected only intermittently to such forces in the course of dip-washing or gentle swirling. Thus, this biofilm model allows for controlled substance exposure times resembling those encountered during mouth rinsing.
The biofilms were exposed to LAE only 6 times during 1 minute in two subsequent days. The evaluation of the LAE effects was studied 16 h after the last exposure.
This experiment compared the re-growth of microorganisms in a control biofilm against a biofilm exposed to LAE. The content of microorganisms in each biofilm was studied along the time. For each point of analysis the growth of microorganisms was studied before and after a dip in a saline solution for control biofilms and in LAE for the other biofilms after each feeding.
The results are expressed as log10 of CFU: […]

[24] = system: Penicillium funiculosum CECT 2914; conditions: Fungi; cited from earlier work
[25] = system: Candida albicans ATCC 10231; conditions: Yeast; cited from earlier work
[26] = system: Micrococcus luteus ATCC 9631; conditions: Gram + bacteria; cited from earlier work
[27] = Tooth coating effect: surface energy from contact angles of sessile drops (Glantz method); type: physicochemical; conditions: for Surface Energy: enamel without LAE ca 23 dyn/cm
From the text: The tooth coating effect by LAE was validated by the methods described by Glantz PO (1981. “Adhesion in the oral cavity” In Fundamentals and application of surface interactions in the oral cavity (ed. S. A. Leach), pp 49-64. Information Retrieval Ltd. London). The method measures contact angles of sessile drops from liquids with a range of polarities to determine the polar component of the surface energy (gamma p) and dispersive component on teeth coated with LAE. Without LAE the surface energy was 23 dyn/cm. […] In the presence of LAE the surface energy was reduced to a lowest level of 11.5 dyn/cm. This coating provides a shielding effect on teeth against erosion caused by acids from food and beverages.
The surface energy of enamel is ca 23 dyn/cm. This surface energy is reduced by the presence of LAE to the following values: […]

S. oralis = assay: Antimicrobial activity on the biofilm (Zurich Biofilm Model); type: cell-based, Streptococcus oralis; conditions: 0.5% LAE; 6 exposures of 1 minute in two days, evaluated 16 h after last exposure; control 9.0
Description: as §1, §2, §3

[28] = system: Aspergillus niger ATCC14604; conditions: Fungi; cited from earlier work
[29] = system: Arthrobacter oxydans ATCC 8010; conditions: Gram + bacteria; cited from earlier work
[30] = cited from earlier work
A. naeslundii = assay: Antimicrobial activity on the biofilm (Zurich Biofilm Model); type: cell-based, Actinomyces naeslundii; conditions: 0.5% LAE; 6 exposures of 1 minute in two days, evaluated 16 h after last exposure; control 8.3
Description: as §1, §2, §3

[31] = system: Alcaligenes faecalis ATCC 8750; conditions: Gram − bacteria; cited from earlier work
[32] = system: Bacillus subtilis ATCC 6633; conditions: Gram + bacteria; cited from earlier work
[33] = system: Mycobacterium phlei ATCC 41423; conditions: listed under Gram − bacteria; cited from earlier work
[34] = system: Salmonella typhimurium ATCC16028; conditions: Gram − bacteria; cited from earlier work
[35] = system: Clostridium perfringens ATCC 77454; conditions: Gram + bacteria; cited from earlier work

## CCCCCCCCCCCC(=O)N[C@@H](CCCN=C(N)N)C(=O)OCC.Cl [LAE, ethyl ester of the lauramide of the arginine monohydrochloride]
[1]
  M.I.C.: 32 ppm
Escherichia coli 0157H7
  M.I.C.: 20 ppm
S. sobrinus
  log10 of CFU in biofilm: 6.1 log10 of CFU
[2]
  M.I.C.: 128 ppm
V. dispar
  log10 of CFU in biofilm: 5.0 log10 of CFU
[3]
  M.I.C.: 16 ppm
[4]
  M.I.C.: 32 ppm
[5]
  M.I.C.: 32 ppm
[6]; Day 0, placebo 6
  intraoral pH after 10% sucrose rinse: 6
[6]; Day 3, placebo 4.3
  intraoral pH after 10% sucrose rinse: 5.3
[6]; Day 7, placebo 4.3
  intraoral pH after 10% sucrose rinse: 5.2
[6]; maintained for 3 and 7 days of continuous monitoring, 0.16% LAE rinse, placebo 4.3±0.2, danger zone below pH 5
  pH of the tooth interface after 10% sucrose rinse: 5.4±0.3
[7]
  M.I.C.: 64 ppm
[8]
  M.I.C.: 16 ppm
[9]
  M.I.C.: 32 ppm
F. nucleatum
  log10 of CFU in biofilm: 2.1 log10 of CFU
[10]
  M.I.C.: 128 ppm
[11]
  M.I.C.: 32 ppm
[12]
  M.I.C.: 32 ppm
[13]
  M.I.C.: 64 ppm
[14]
  M.I.C.: 64 ppm
[15]
  absorption and metabolism: fast absorption and metabolisation into naturally-occurring amino acids and the fatty acid lauric acid
[16]
  M.I.C.: 32 ppm
[17]
  M.I.C.: 32 ppm
[18]
  M.I.C.: 16 ppm
[19]
  M.I.C.: 16 ppm
[20]
  M.I.C.: 10 ppm
[21]
  M.I.C.: 32 ppm
C. albicans
  log10 of CFU in biofilm: 2.1 log10 of CFU
[22]
  M.I.C.: 32 ppm
[23]; 16.5 h, After 1 dip, control 7.2
  log10 of CFU, biofilm re-growth: 3.5 log10 of CFU
[23]; 16.5 h, Before 1 dip, control 7.1
  log10 of CFU, biofilm re-growth: 7.1 log10 of CFU
[23]; 24.5 h, After 3 dip, control 7.4
  log10 of CFU, biofilm re-growth: 2.2 log10 of CFU
[23]; 24.5 h, Before 3 dip, control 8.1
  log10 of CFU, biofilm re-growth: 1.4 log10 of CFU
[23]; 40.5 h, After 4 dip, control 8.1
  log10 of CFU, biofilm re-growth: 1.2 log10 of CFU
[23]; 40.5 h, Before 4 dip, control 8.1
  log10 of CFU, biofilm re-growth: 5.9 log10 of CFU
[23]; 48.5 h, After 6 dip, control 8.4
  log10 of CFU, biofilm re-growth: 1.2 log10 of CFU
[23]; 48.5 h, Before 6 dip, control 8.5
  log10 of CFU, biofilm re-growth: 3.2 log10 of CFU
[23]; 64.5 h, Endpoint, control 9.0
  log10 of CFU, biofilm re-growth: 4.3 log10 of CFU
[24]
  M.I.C.: 16 ppm
[25]
  M.I.C.: 16 ppm
[26]
  M.I.C.: 128 ppm
[27]; [LAE] 0.00001 %
  Surface Energy: 21.5 dyn/cm
[27]; [LAE] 0.001 %
  Surface Energy: 16.5 dyn/cm
[27]; [LAE] 0.01 %
  Surface Energy: 11.5 dyn/cm
[27]; [LAE] 0.1 %
  Surface Energy: 14 dyn/cm
[27]; [LAE] 1 %
  Surface Energy: 12 dyn/cm
[27]; lowest level, without LAE 23 dyn/cm
  Surface energy, lowest level in the presence of LAE: 11.5 dyn/cm
S. oralis
  log10 of CFU in biofilm: 6.1 log10 of CFU
[28]
  M.I.C.: 32 ppm
[29]
  M.I.C.: 64 ppm
[30]; human beings
  tolerance and toxicity in practical use: well tolerated and to display a very low toxicity to human beings
[30]; toxicological studies, animals and humans
  toxicity: completely harmless to animals and humans
A. naeslundii
  log10 of CFU in biofilm: 2.5 log10 of CFU
[31]
  M.I.C.: 64 ppm
[32]
  M.I.C.: 16 ppm
[33]
  M.I.C.: 2 ppm
[34]
  M.I.C.: 32 ppm
[35]
  M.I.C.: 16 ppm

Reference: patent publication US20100330136A1, “USE OF CATIONIC SURFACTANTS FOR THE PROTECTION AGANST TOOTH EROSION” (priority 2008, published 2010)
